Test results: US9163032B2, “Esters of DCPLA and methods of treatment using the same” (Blanchette Rockefeller Neurosciences Institute, priority 2011, dated 2015)

How the values were obtained:
PKC-ε = PKC-ε level in primary neurons (immunofluorescence, Western Blot); assay type: cell-based, rat
Procedure: Cells were grown in two chambered slides (Nunc, USA) at low density. For immunofluorescence staining, the cells were washed with PBS (pH 7.4) and fixed with 4% paraformaldehyde for 4 min. Following fixation, the cells were blocked and permeabilized with 5% serum and 0.3% Triton X-100 in 1×PBS for 30 min. Cells were washed three times with 1×PBS and incubated with primary antibodies for 1 hr at 1:100 dilution. After the incubation, the slides were again washed three times in 1×PBS and were incubated with the FITC anti-mouse IgG and Rhodamine anti-rabbit IgG for 1 hr at 1:400 dilution. The cells were further washed and stained with DAPI (4′,6-diamidino-2′-phenylindole, dihydrochloride) (Thermo Scientific, USA) to stain the nucleus. Finally, the slides were washed and mounted in Pro Long Gold antifade mounting solution (Invitrogen, USA) and were viewed under a LSM 710 Meta confocal microscope (Zeiss) at 350 nm, 490 nm, and 540 nm excitation and 470 nm, 525 nm, and 625 nm emission for DAPI, FITC, and Rhodamine respectively. Six individual fields at 63× oil lens magnification were analyzed for the mean fluorescence intensity (MFI) in each channel.
Cells were harvested in homogenizing buffer containing 10 mM Tris-Cl (pH 7.4), 1 mM PMSF (phenylmethylsulfonyl fluoride), 1 mM EGTA, 1 mM EDTA, 50 mM NaF, and 20 μM leupeptin, and were lysed by sonication. The homogenate was centrifuged at 100,000×g for 15 min at 4° C. to obtain the cytosolic fraction (supernatant) and membrane (pellet). The pellet was resuspended in the homogenizing buffer by sonication. […] Protein concentration was measured using the Coomassie Plus (Bradford) Protein Assay kit (Pierce, USA). Following quantification, 20 μg of protein from each sample was subjected to SDS-PAGE analysis in a 4-20% gradient Tris-Glycine gel (Invitrogen, USA). […] The blot was imaged in an ImageQuant RT-ECL (GE Life Sciences, Piscataway, N.J.) and densitometric quantification was performed using IMAL software (Blanchette Rockefeller Neurosciences Institute, Morgantown, W. Va.). […]

PKC-α = PKC-α (Homo sapiens, UniProt P17252); experiment: PKC activation assay with purified PKC-α isozyme; assay type: biochemical
Procedure: For measurement of PKC activation by DCPLA-ME, activation of recombinant PKC-α, PKC-ε, and PKC-δ was evaluated. DCPLA-ME induced activation was measured in the absence of diacylglycerol (DAG) and phosphatidylserine (PS) as described earlier. See Nelson, T. J. et al., J. Biol. Chem., 2009, 284: 34514-34521, and Kanno, T. et al., J. Cell Physiol., 2009, 221: 183-188. Individual enzymes were incubated for 15 min at 37° C. in the presence of 10 μM histones, 4.89 mM CaCl2, 10 mM MgCl2, 20 mM HEPES (pH 7.4), 0.8 mM EDTA, 4 mM EGTA, 4% glycerol, 8 μg/ml aprotinin, 8 μg/ml leupeptin, 2 mM benzamidine, and 0.5 μCi of [γ-^32P]ATP. Purified PKC-α, PKC-ε and PKC-δ were preincubated with DCPLA-ME for 5 min at room temperature. [^32P]-Phosphoprotein formation was measured by adsorption onto phosphocellulose.
To measure PKC, 10 μl of cell homogenate or purified PKC isozyme was incubated for 15 min at 37° C. in the presence of 10 μM histones, 4.89 mM CaCl2, 1.2 μg/μl phosphatidyl-L-serine, 0.18 μg/μl 1,2-dioctanoyl-sn-glycerol, 10 mM MgCl2, 20 mM HEPES (pH 7.4), 0.8 mM EDTA, 4 mM EGTA, 4% glycerol, 8 μg/ml aprotinin, 8 μg/ml leupeptin, and 2 mM benzamidine. [γ32P]ATP (0.5 μCi) was added and 32P-phosphoprotein formation was measured by adsorption onto phosphocellulose as described previously. […]
PKC activity of each compound was measured in the absence of diacylglycerol and phosphatidyl-L-serine and PKC-δ and PKC-ε were measured in the absence of added EGTA and CaCl2, as described by Kanno et al., J. Lipid Res., 2006, 47: 1146-1156. […] To determine their PKC isozyme specificity, the compounds were pre-incubated with purified isoforms of PKC for five minutes and the PKC activity was measured radiometrically.
The activation and PKC isozyme specificity of DCPLA-ethyl ester was measured following the procedures in Example 1(B) and (C), except that 9 ng of the purified isozyme was used and it was pre-incubated for 5 minutes at room temperature (FIG. 3). PKC-ε activation by DCPLA-tert-butyl ester and DCPLA-retinyl ester was measured in the same manner as DCPLA-ethyl ester (FIG. 3).

Row | effect on PKC-α (PKC-α) | Molecule | PKC-ε protein level (Western Blot) (PKC-ε; ASPD-treated primary neurons, 100 nM DCPLA-ME) | PKC-ε immunofluorescence level (PKC-ε; ASPD, 20 hr, primary neurons)
1 | did not have a major effect | CCCCCC1CC1CC1CC1CCCCCCCC(=O)OC (stereo not drawn) [DCPLA-ME, DCPLA methyl ester] | restored the PKC-ε protein level to normal | –
2 | – | ASPD: Amylospheroids from Aβ1-42, 100 kDa filter retentate, containing 39 monomers on average | – | 60.81±5.85 % compared to control
